For one data set, the system named is L1210. As to the kind of experiment: Concentration required to inhibit 50 percent growth of L1210 mouse leukemia cells. Format: functional, cell-based.
Data set [1] in a line: pKa of nitrogen -1(N1) of the compound; too low to measure accurately. It is filed as physicochemical.
Data set [2] in a line: pKa of nitrogen -3(N3) of the compound. It is filed as physicochemical.
The next data set deals with Thymidylate synthase (Mus musculus, UniProt P07607). As to the kind of experiment: Concentration required for in vitro inhibition of thymidylate synthase.
Data set [3] can be described thus: pKa of nitrogen -1(N1) of the compound. It is filed as physicochemical.
Data set [4] is described as follows: Solubility in […] M aqueous NaH2PO4 buffer at pH 7.0 and 25 degree C. Format: physicochemical. The settings on record: 0.92 M aqueous NaH2PO4 buffer.

The structures appear in SMILES notation. Converted amounts (≈) assume the structure as drawn.

Sequence of Thymidylate synthase (P07607 whole entry): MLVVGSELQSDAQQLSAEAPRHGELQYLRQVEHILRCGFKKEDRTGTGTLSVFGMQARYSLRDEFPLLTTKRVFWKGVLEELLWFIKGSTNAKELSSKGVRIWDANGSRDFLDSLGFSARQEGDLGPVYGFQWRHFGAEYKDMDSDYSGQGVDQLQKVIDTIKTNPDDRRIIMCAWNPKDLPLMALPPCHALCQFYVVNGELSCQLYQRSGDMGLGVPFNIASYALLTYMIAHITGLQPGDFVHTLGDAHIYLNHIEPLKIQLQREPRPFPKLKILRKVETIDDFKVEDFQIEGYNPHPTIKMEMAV

What is called IC50 is the midpoint of a concentration-inhibition curve. High values mean weaker potency, low ones greater potency. `C#CCN(Cc1ccc2nc(C(C)C)[nH]c(=O)c2c1)c1ccc(C(=O)N[C@@H](CCC(=O)O)C(=O)O)cc1`: the concentration for half-maximal inhibition (IC50) with L1210 turned out to be 48 µM. This lies in the double-digit micromolar range. `O=C(O)CC[C@H](NC(=O)c1ccc(N(CCF)Cc2ccc3nc(CF)[nH]c(=O)c3c2)cc1)C(=O)O` came in with an IC50 with L1210 of 1.2 µM. For the compound `C#CCN(Cc1ccc2nc(C(F)F)nc(O)c2c1)c1ccc(C(=O)N[C@@H](CCC(=O)O)C(=O)O)cc1`, the 50% inhibitory concentration (IC50) in the data set on L1210 came to 24 µM. For orientation: pKa means the negative logarithm of the acid dissociation constant. Low readings indicate a group that gives up its proton readily, high ones a group that holds its proton tightly. In the case of `Cc1ccc2nc(C(F)F)nc(O)c2c1`, the pKa in data set [1] was less than 2; in data set [2], 7.2. Compound `CCN(Cc1ccc2nc(CF)[nH]c(=O)c2c1)c1ccc(C(=O)N[C@@H](CCC(=O)O)C(=O)O)cc1` had an IC50 with L1210 of 0.7 µM.

In the data set with L1210, `C#CCN(Cc1ccc2nc[nH]c(=O)c2c1)c1ccc(C(=O)N[C@@H](CCC(=O)O)C(=O)O)cc1` came in with an IC50 of 0.4 µM.

Take `Cc1nc2ccc(CN(CCO)c3ccc(C(=O)N[C@@H](CCC(=O)O)C(=O)O)cc3)cc2c(=O)[nH]1`: the 50% inhibitory concentration (IC50) is 0.24 µM with L1210 and 0.5 µM at Thymidylate synthase. The corresponding values for `CC(=O)CN(Cc1ccc2nc(C)[nH]c(=O)c2c1)c1ccc(C(=O)N[C@@H](CCC(=O)O)C(=O)O)cc1` are 1.2 µM and 25 µM. As to `CCN(Cc1ccc2nc(CO)[nH]c(=O)c2c1)c1ccc(C(=O)N[C@@H](CCC(=O)O)C(=O)O)cc1`, the IC50 in the data set on L1210 was 16 µM. `CN(Cc1ccc2nc(CF)[nH]c(=O)c2c1)c1ccc(C(=O)N[C@@H](CCC(=O)O)C(=O)O)cc1`: the results for the IC50 in the data set on L1210 and on Thymidylate synthase were 0.003 µM and 2.92 µM, respectively. Consider `COCCCN(Cc1ccc2nc(C)[nH]c(=O)c2c1)c1ccc(C(=O)N[C@@H](CCC(=O)O)C(=O)O)cc1`, for which the values for the IC50 in the data set on L1210 and at Thymidylate synthase were greater than 100 µM and 12.9 µM, respectively. Regarding `Cc1nc2ccc(CN(CCCO)c3ccc(C(=O)N[C@@H](CCC(=O)O)C(=O)O)cc3)cc2c(=O)[nH]1`, the half-maximal inhibitory concentration (IC50) was 1.24 µM with L1210 and 0.54 µM against Thymidylate synthase.

`Cc1nc2ccc(CN(CCF)c3ccc(C(=O)N[C@@H](CCC(=O)O)C(=O)O)cc3)cc2c(=O)[nH]1`: the concentration for half-maximal inhibition (IC50) amounted to 0.4 µM with L1210 and 0.24 µM against Thymidylate synthase. In the data set with L1210, `O=C(O)CC[C@H](NC(=O)c1ccc(N(CCF)Cc2ccc3nc(CO)[nH]c(=O)c3c2)cc1)C(=O)O` came in with a 50% inhibitory concentration (IC50) of 20 µM. On the same count and under the same terms, the same measure for `C=CCN(Cc1ccc2nc(CO)[nH]c(=O)c2c1)c1ccc(C(=O)N[C@@H](CCC(=O)O)C(=O)O)cc1`: 6.6 µM. For the compound `Cc1ccc2nc(CF)nc(O)c2c1`, the pKa was less than 2 in data set [1] and 8.5 in data set [2].

For `Cc1nc2ccc(CN(CCS)c3ccc(C(=O)N[C@@H](CCC(=O)O)C(=O)O)cc3)cc2c(=O)[nH]1`, the IC50 in the data set on L1210 was greater than 100 µM; against Thymidylate synthase, 1.76 µM. Compound `C#CCN(Cc1ccc2nc(CC)[nH]c(=O)c2c1)c1ccc(C(=O)N[C@@H](CCC(=O)O)C(=O)O)cc1` displayed a half-inhibitory concentration (IC50) in the data set with L1210 of 2.5 µM. `Cc1ccc2nc(C(F)(F)F)nc(O)c2c1`: the pKa was less than 2 in data set [1] and 5.9 in data set [2]. In the case of `CCc1nc2ccc(CNc3ccc(C(=O)N[C@@H](CCC(=O)O)C(=O)O)cc3)cc2c(=O)[nH]1`, the 50% inhibitory concentration (IC50) amounted to 3.2 µM in the data set on L1210 and 20 µM against Thymidylate synthase. Regarding `Cc1ccc2nc(C)nc(O)c2c1`, the pKa in data set [3] worked out at 3.5; in data set [2] it was 10.2.

In the data set on L1210, `O=C(O)CC[C@H](NC(=O)c1ccc(N(CCO)Cc2ccc3nc(CO)[nH]c(=O)c3c2)cc1)C(=O)O` displayed an IC50 of 14.5 µM. With `C#CCN(Cc1ccc2nc(CNC(C)=O)[nH]c(=O)c2c1)c1ccc(C(=O)N[C@@H](CCC(=O)O)C(=O)O)cc1`, half-maximal inhibition with L1210 (IC50) was put at 125 µM. Against the preceding compound, the IC50 is about 8.6-fold higher. Take `COCCN(Cc1ccc2nc(C)[nH]c(=O)c2c1)c1ccc(C(=O)N[C@@H](CCC(=O)O)C(=O)O)cc1`: the IC50 in the data set on L1210 was 40 µM; against Thymidylate synthase, 16.3 µM. As to `C#CCN(Cc1ccc2nc(CSc3ncccn3)[nH]c(=O)c2c1)c1ccc(C(=O)N[C@@H](CCC(=O)O)C(=O)O)cc1`, the IC50 with L1210 was 100 µM.

With `Cc1nc2ccc(CN(CCBr)c3ccc(C(=O)N[C@@H](CCC(=O)O)C(=O)O)cc3)cc2c(=O)[nH]1`, the half-inhibitory concentration (IC50) with L1210 was found to be 0.82 µM; at Thymidylate synthase, 1.3 µM.

In turn, `C#CCN(Cc1ccc2nc(C(F)(F)F)[nH]c(=O)c2c1)c1ccc(C(=O)N[C@@H](CCC(=O)O)C(=O)O)cc1` had an IC50 with L1210 greater than 100 µM.

In the case of `CN(Cc1ccc2nc(CO)[nH]c(=O)c2c1)c1ccc(C(=O)N[C@@H](CCC(=O)O)C(=O)O)cc1`, the half-maximal inhibitory concentration (IC50) in the data set with L1210 is 13 µM. In turn, `C#CCN(Cc1ccc2nc(CF)[nH]c(=O)c2c1)c1ccc(C(=O)N[C@@H](CCC(=O)O)C(=O)O)cc1` had an IC50 in the data set on L1210 of 0.37 µM. Regarding `C=CCN(Cc1ccc2nc(C)[nH]c(=O)c2c1)c1ccc(C(=O)N[C@@H](CCC(=O)O)C(=O)O)cc1`, the figures for the IC50 in the data set on L1210 and against Thymidylate synthase were 0.17 µM and 0.48 µM, respectively. A word on the solubility: it is the concentration that dissolves in the medium under given conditions. Low values mean a poorly soluble substance, high ones a readily soluble substance. For the compound `C#CCN(Cc1ccc2nc(N)[nH]c(=O)c2c1)c1ccc(C(=O)N[C@@H](CCC(=O)O)C(=O)O)cc1`, the IC50 in the data set on L1210 is 3.4 µM. In data set [4], the solubility was found to be 0.07 mg/mL (≈ 0.147 mM). As to `Cc1nc2ccc(CN(C)c3ccc(C(=O)N[C@@H](CCC(=O)O)C(=O)O)cc3)cc2c(=O)[nH]1`, the half-maximal inhibitory concentration (IC50) in the data set with L1210 came to 0.11 µM; against Thymidylate synthase it was 0.3 µM. In the data set on L1210, `C#CCN(Cc1ccc2nc(-c3ccccc3)[nH]c(=O)c2c1)c1ccc(C(=O)N[C@@H](CCC(=O)O)C(=O)O)cc1` showed an IC50 greater than 100 µM. Regarding `C#CCN(Cc1ccc2nc(C)[nH]c(=O)c2c1)c1ccc(C(=O)N[C@@H](CCC(=O)O)C(=O)O)cc1`, the half-maximal inhibitory concentration (IC50) with L1210 was 0.09 µM. This compound also showed a solubility in data set [4] of 3.2 mg/mL (≈ 6.72 mM). Turning to `CCN(Cc1ccc2nc(C)[nH]c(=O)c2c1)c1ccc(C(=O)N[C@@H](CCC(=O)O)C(=O)O)cc1`, the values for the IC50 with L1210 and against Thymidylate synthase were 0.36 µM and 0.17 µM, respectively. For the compound `Cc1nc2ccc(CNc3ccc(C(=O)N[C@@H](CCC(=O)O)C(=O)O)cc3)cc2c(=O)[nH]1`, the IC50 in the data set with L1210 was found to be 0.07 µM; against Thymidylate synthase, 4.5 µM.

Consider `Cc1ccc2nc(N)nc(O)c2c1`, for which the pKa came out at 4.2 in data set [3] and 9.4 in data set [2].

(Values after ChEMBL document CHEMBL1125071, “Quinazoline antifolate thymidylate synthase inhibitors: alkyl, substituted alkyl, and aryl substituents in the C2 position” (J Med Chem, 1990).)
